Experimental data as given in patent US10294229B2, “Heteroaryl substituted aminopyridine compounds” (BRISTOL-MYERS SQUIBB COMPANY, priority 2015, dated 2019).

Legend:
IRAK4 = IRAK4 (Homo sapiens (Human), UniProt Q9NWZ3); assay: IRAK4 Inhibition Assay; format: biochemical; details: ATP 500 μM; IRAK4 0.6 nM
Procedure, shortened: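 Enzyme 0.6 nM, ATP 500 μM, FL-peptide 1.5 μM, DMSO 1.6%; HEPES pH 7.2/MgCl2/Brij 35/DTT buffer. RT, 60 min, EDTA stop. Mobility-shift product/substrate ratio; % inhib vs no-enzyme and vehicle controls.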

Caco-2 cells = assay: Caco-2 Permeability Assay; format: in vitro ADME; details: test compound 3 μM
Procedure, shortened: (§1)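 Bidirectional permeability measured over 2 h at 37° C, compound dosed at 3 μM in the donor compartment (apical for absorptive, basolateral for secretive) with plain buffer as receiver.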

[1] = tested on: Human whole blood stimulated with a TLR2 agonist (lipoteichoic acid), IL-6 levels; assay: IRAK4 Whole Blood Assay; format: cell-based; details: lipoteichoic acid 10 μg/mL
Procedure, shortened: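 ACD-A-anticoagulated human whole blood was preincubated with compounds for 60 min at 37 °C under 5% CO2. It was then stimulated with 10 μg/mL lipoteichoic acid (final) in RPMI for 5 h. IL-6 in plasma supernatants was measured by flow cytometry bead assay.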

[2] = Caco-2 Permeability Assay; format: in vitro ADME; details: human, Caco-2, test compound 3 μM
Procedure, shortened: as §1

Sequence of IRAK4 (Q9NWZ3 whole entry, species assumed): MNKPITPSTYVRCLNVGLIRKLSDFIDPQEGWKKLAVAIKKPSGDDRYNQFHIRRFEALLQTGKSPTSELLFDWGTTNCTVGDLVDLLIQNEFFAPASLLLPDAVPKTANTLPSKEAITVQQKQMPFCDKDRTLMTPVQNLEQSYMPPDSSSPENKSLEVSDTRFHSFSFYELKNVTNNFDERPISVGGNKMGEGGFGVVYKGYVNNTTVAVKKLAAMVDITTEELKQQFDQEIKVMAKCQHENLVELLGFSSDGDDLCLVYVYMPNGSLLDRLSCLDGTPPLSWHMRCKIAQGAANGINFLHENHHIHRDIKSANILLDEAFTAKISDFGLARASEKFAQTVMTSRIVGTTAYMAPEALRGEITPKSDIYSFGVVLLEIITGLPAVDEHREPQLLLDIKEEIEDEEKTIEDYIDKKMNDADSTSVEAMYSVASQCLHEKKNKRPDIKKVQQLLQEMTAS

| SMILES | IC50 (IRAK4) | Caco-2 Permeability (Caco-2 cells) | EC50 [1] | Caco-2 Permeability (Caco-2 cells; listed as 400, Isomer 1) | EC50 ([1]; Homo sapiens) | Caco-2 Permeability (Caco-2 cells; listed as 400, Isomer 2) | EC50 ([1]; listed as 400, Isomer 2) | Papp at 2 h, 3 µM [2] |
| --- | --- | --- | --- | --- | --- | --- | --- | --- |
| CC(C)Nc1cc(-n2ncc3cc(C#N)cnc32)ncc1-c1cn([C@@H]2CCN(S(C)(=O)=O)C[C@H]2F)nn1 (single isomer, unassigned) [Example 211, 1-(5-(1-((trans)-3-fluoro-1-(methylsulfonyl)piperidin-4-yl)-1H-1,2,3-triazol-4-yl)-4-(isopropylamino)pyridin-2-yl)-1H-pyrazolo[3,4-b]pyridine-5-carbonitrile] | 2 nM | 3.2 ×10⁻⁶ cm/s | 290 nM |  |  |  |  |  |
| CC(C)Nc1cc(-n2ncc3cc(C#N)cnc32)ncc1-c1cc(C2COCCN2)no1 (single isomer, unassigned) [Example 400, Isomer 1, 1-(4-(isopropylamino)-5-(3-(morpholin-3-yl)isoxazol-5-yl)pyridin-2-yl)-1H-pyrazolo[3,4-b]pyridine-5-carbonitrile] | 3 nM |  |  | 22.4 ×10⁻⁶ cm/s | 230 nM |  |  |  |
| CC(C)Nc1cc(-n2ncc3cc(C#N)cnc32)ncc1-c1cc(C2COCCN2)no1 (single isomer, unassigned) [Example 400, Isomer 2, 1-(4-(isopropylamino)-5-(3-(morpholin-3-yl)isoxazol-5-yl)pyridin-2-yl)-1H-pyrazolo[3,4-b]pyridine-5-carbonitrile] | 6 nM |  |  |  |  | 53 ×10⁻⁶ cm/s | 270 nM |  |
| CC(=O)N1CCCC(n2cc(-c3cnc(-n4ncc5cc(C#N)cnc54)cc3NC(C)C)nn2)C1 (centres unmarked) [Example 161, 1-(5-(1-(1-acetylpiperidin-3-yl)-1H-1,2,3-triazol-4-yl)-4-(isopropylamino)pyridin-2-yl)-1H-pyrazolo[3,4-b]pyridine-5-carbonitrile] | 2 nM | 3.5 ×10⁻⁶ cm/s | 250 nM |  |  |  |  |  |
| CC(C)Nc1cc(-n2ncc3cc(C#N)cnc32)ncc1-c1cn(C2CCOC2)nn1 (centres unmarked) [Example 215, 1-(4-(isopropylamino)-5-(1-(tetrahydrofuran-3-yl)-1H-1,2,3-triazol-4-yl)pyridin-2-yl)-1H-pyrazolo[3,4-b]pyridine-5-carbonitrile] | 8 nM | 10.4 ×10⁻⁶ cm/s | 1310 nM |  |  |  |  |  |
| CC(=O)N1CCC[C@@H](c2cc(-c3cnc(-n4ncc5cc(C#N)cnc54)cc3NC(C)C)on2)C1 [Example 409, (R)-1-(5-(3-(1-acetylpiperidin-3-yl)isoxazol-5-yl)-4-(isopropylamino)pyridin-2-yl)-1H-pyrazolo[3,4-b]pyridine-5-carbonitrile] | 2 nM | 30.2 ×10⁻⁶ cm/s | 470 nM |  |  |  |  |  |
| CC(=O)N1CC[C@H]1c1cc(-c2cnc(-n3ncc4cc(C#N)cnc43)cc2NC(C)C)on1 [Example 427, (S)-1-(5-(3-(1-acetylazetidin-2-yl)isoxazol-5-yl)-4-(isopropylamino)pyridin-2-yl)-1H-pyrazolo[3,4-b]pyridine-5-carbonitrile] | 15 nM |  |  |  | 250 nM |  |  | 8 ×10⁻⁶ cm/s |
| CC(C)Nc1cc(-n2ncc3cc(C#N)cnc32)ncc1-c1cc(CC(C)(C)O)on1 [Example 439, 1-(5-(5-(2-hydroxy-2-methylpropyl)isoxazol-3-yl)-4-(isopropylamino)pyridin-2-yl)-1H-pyrazolo[3,4-b]pyridine-5-carbonitrile] |  | 31 ×10⁻⁶ cm/s | 250 nM |  |  |  |  |  |
| CCNc1cc(-n2ncc3cc(C#N)cnc32)ncc1C1=NOC(CCC(C)(C)O)C1 (centres unmarked) [Example 440, 1-(4-(ethylamino)-5-(5-(3-hydroxy-3-methylbutyl)-4,5-dihydroisoxazol-3-yl)pyridin-2-yl)-1H-pyrazolo[3,4-b]pyridine-5-carbonitrile] | 4 nM |  |  |  | 280 nM |  |  | 31.6 ×10⁻⁶ cm/s |

Results, then the compound that gave them:

| IC50 (IRAK4) | Caco-2 Permeability (Caco-2 cells) | EC50 [1] | Caco-2 Permeability (Caco-2 cells; listed as 400, Isomer 1) | EC50 ([1]; Homo sapiens) | Caco-2 Permeability (Caco-2 cells; listed as 400, Isomer 2) | EC50 ([1]; listed as 400, Isomer 2) | Papp at 2 h, 3 µM [2] | SMILES |
| --- | --- | --- | --- | --- | --- | --- | --- | --- |
| 5 nM | 16.2 ×10⁻⁶ cm/s | 370 nM |  |  |  |  |  | CC(C)Nc1cc(-n2ncc3cc(C#N)cnc32)ncc1-c1cn(CC2CC2(F)F)nn1 (single isomer, unassigned) [Example 32, 1-(5-(1-((2,2-difluorocyclopropyl)methyl)-1H-1,2,3-triazol-4-yl)-4-(isopropylamino)pyridin-2-yl)-1H-pyrazolo[3,4-b]pyridine-5-carbonitrile] |
| 10 nM | 11.5 ×10⁻⁶ cm/s | 280 nM |  |  |  |  |  | CCC(C)(O)Cn1cc(-c2cnc(-n3ncc4cc(C#N)cnc43)cc2NC(C)C)nn1 (single isomer, unassigned) [Example 93, 1-(5-(1-(2-hydroxy-2-methylbutyl)-1H-1,2,3-triazol-4-yl)-4-(isopropylamino)pyridin-2-yl)-1H-pyrazolo[3,4-b]pyridine-5-carbonitrile] |
| 5 nM | 13.9 ×10⁻⁶ cm/s | 300 nM |  |  |  |  |  | CC(C)Nc1cc(-n2ncc3cc(C#N)cnc32)ncc1-c1cc(C2CCCCN2)no1 [Example 413, (S)-1-(4-(isopropylamino)-5-(3-(piperidin-2-yl)isoxazol-5-yl)pyridin-2-yl)-1H-pyrazolo[3,4-b]pyridine-5-carbonitrile] |
| 10 nM |  |  |  | 180 nM |  |  | < 1.5 ×10⁻⁶ cm/s | CC(C)Nc1cc(-n2ncc3cc(C#N)cnc32)ncc1-c1cc([C@@H]2C[C@H](O)CCN2)no1 [Example 424, 1-(5-(3-((2S,4R)-4-hydroxypiperidin-2-yl)isoxazol-5-yl)-4-(isopropylamino)pyridin-2-yl)-1H-pyrazolo[3,4-b]pyridine-5-carbonitrile] |
| 9 nM |  |  |  | 140 nM |  |  | < 1.5 ×10⁻⁶ cm/s | CC(C)Nc1cc(-n2ncc3cc(C#N)cnc32)ncc1-c1cc([C@H]2C[C@@H](O)CCN2)no1 [Example 425, 1-(5-(3-((2R,4S)-4-hydroxypiperidin-2-yl)isoxazol-5-yl)-4-(isopropylamino)pyridin-2-yl)-1H-pyrazolo[3,4-b]pyridine-5-carbonitrile] |
| 4 nM |  |  |  | 460 nM |  |  | 26.3 ×10⁻⁶ cm/s | CC(C)Nc1cc(-n2ncc3cc(C#N)cnc32)ncc1-c1cc([C@@H]2COCCN2)on1 [Example 428, (S)-1-(4-(isopropylamino)-5-(5-(morpholin-3-yl)isoxazol-3-yl)pyridin-2-yl)-1H-pyrazolo[3,4-b]pyridine-5-carbonitrile] |
| 2 nM |  |  |  | 440 nM |  |  | 21.8 ×10⁻⁶ cm/s | CCN1CCOC[C@H]1c1cc(-c2cnc(-n3ncc4cc(C#N)cnc43)cc2NC(C)C)no1 [Example 431, (S)-1-(5-(5-(4-ethylmorpholin-3-yl)isoxazol-3-yl)-4-(isopropylamino)pyridin-2-yl)-1H-pyrazolo[3,4-b]pyridine-5-carbonitrile] |
| 11 nM |  |  |  | 200 nM |  |  | 1.7 ×10⁻⁶ cm/s | CC(C)Nc1cc(-n2ncc3cc(C#N)cnc32)ncc1-c1nnc(C(=O)N2CCOCC2)o1 [Example 433, 1-(4-(isopropylamino)-5-(5-(morpholine-4-carbonyl)-1,3,4-oxadiazol-2-yl)pyridin-2-yl)-1H-pyrazolo[3,4-b]pyridine-5-carbonitrile] |
| 2 nM | 31.7 ×10⁻⁶ cm/s | 260 nM |  |  |  |  |  | CCNc1cc(-n2ncc3cc(C#N)cnc32)ncc1C1=NOC(CCC(C)(C)O)C1 (centres unmarked) [Example 441, 1-(4-(ethylamino)-5-(5-(3-hydroxy-3-methylbutyl)-4,5-dihydroisoxazol-3-yl)pyridin-2-yl)-1H-pyrazolo[3,4-b]pyridine-5-carbonitrile] |
| 2 nM |  | 390 nM |  |  |  |  | 14.1 ×10⁻⁶ cm/s | CC(C)(O)CCC1CC(c2cnc(-n3ncc4cc(C#N)cnc43)cc2NCC(F)F)=NO1 (centres unmarked) [Example 443, 1-(4-((2,2-difluoroethyl)amino)-5-(5-(3-hydroxy-3-methylbutyl)-4,5-dihydroisoxazol-3-yl)pyridin-2-yl)-1H-pyrazolo[3,4-b]pyridine-5-carbonitrile] |
